Data reported in patent publication US9994551B2, “Pyridazine derivatives as RORc modulators” (Genentech, Inc., priority 2015, dated 2018).
pIC50: −log10 of the molar value.

biological target: T1, RORc ligand binding domain (Homo sapiens, UniProt P51449); experiment: In vitro RORc ligand binding assay (25-[3H]hydroxycholesterol displacement, filter binding)
T1 construct: host or cells: E. coli
T1 sequence (P51449 269-508 limits assumed): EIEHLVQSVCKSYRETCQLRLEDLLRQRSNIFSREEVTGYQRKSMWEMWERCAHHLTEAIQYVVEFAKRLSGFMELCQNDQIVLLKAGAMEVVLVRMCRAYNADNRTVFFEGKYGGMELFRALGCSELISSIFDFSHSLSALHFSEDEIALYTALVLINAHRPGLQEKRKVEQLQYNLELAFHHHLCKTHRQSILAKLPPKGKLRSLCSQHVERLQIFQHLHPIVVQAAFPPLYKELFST
Protocol: This assay was used to determine a compound's potency in inhibiting activity of RORc by determining, Kiapp, IC50, or percent inhibition values.
On day of the assay, 100 uL of 0.05% CHAPS (in deionized H2O) was added to all wells of the GFB Unifilter plate and allowed soak for 1 h. A wash buffer of 50 mM HEPES (pH 7.4), 150 mM NaCl, and 5 mM MgCl2 was prepared to wash the filter plate. To prepare an assay buffer, BSA was added to the wash buffer to reach 0.01% and DTT was added to reach 1 mM.
The 20× compound stocks were diluted in DMSO with Assay Buffer 4-fold to reach 5× the final test concentration in 25% DMSO (10 uL compound+30 uL Assay Buffer). Solutions were mixed by aspiration several times with a pipette set on 50 uL volume. For the assay, 10 uL of 5× compound stock solutions in 25% DMSO were added to the assay plate in duplicate.
For two point screening, 10 mM stock compound solutions were diluted in DMSO to obtain 200 uM (20× the high test concentration) and then diluted 10-fold further to reach 20 uM (20× the low test concentration). The 20× stocks were diluted 4-fold with Assay Buffer (10 uL compound+30 uL Assay Buffer) to reach 5× the test concentrations (50 uM and 5 uM) and 10 uL were added to two assay plates for the duplicate wells. With each concentration tested on 2 plates, each set of 80 compounds used 4 assay plates (1 uM and 10 uM, with n=2).
For 25-hydroxycholesterol in 25% DMSO/75% Assay Buffer; 10 uL per well was used for NSB samples. Wells for Total Binding and No Receptor sample determination contained 10 uL of 25% DMSO/75% Assay Buffer per well.
Add 20 uL to all wells to reach 6 nM final concentration in the assay.
Stock receptor solution was diluted in assay buffer to obtain 1.5 ug/mL in Assay Buffer. 20 uL was added to all wells. For No Receptor samples, 20 uL Assay Buffer was substituted for receptor solution.
Assay plates were 96-well polypropylene V-bottom plates. 10 uL of 5× compound in 25% DMSO/75% Assay Buffer was added to Test wells. 10 uL of 25% DMSO/75% Assay Buffer was added to Total Binding or No Receptor wells. 10 uL of 5 uM 25-hydroxycholesterol in 25% DMSO/75% Assay Buffer was added to NSB wells. […] 20 uL of 1.5 ug/mL RORc receptor was added to wells (or 40 uL Assay Buffer to No R wells). Following addition to the wells, the plates were incubated 3 h at 25° C.
Using a Packard Filtermate Harvester, the filter plate were washed 4 times following transfer of the incubated samples. Plates were dry-filtered completely (2 h at 50° C. or overnight at room temperature). 50 uL Microscint 0 was added to all wells and read on Topcount protocol Inverted.

| SMILES | pIC50 |
| --- | --- |
| CC1(C)[C@H]2CC[C@]1(OS(=O)(=O)C(F)(F)F)c1nnc(-c3c(F)cccc3F)cc12 [Compound 6, (5S,8R)-3-(2,6-difluorophenyl)-9,9-dimethyl-5,6,7,8-tetrahydro-5,8-methanocinnolin-8-yl trifluoromethanesulfonate] | 8.22 |
| CC1(C)[C@H]2CC[C@]1([C@H]1CCCN(C(=O)c3cn[nH]c3)C1)c1nnc(-c3c(F)cccc3F)cc12 [Compound 167, [3-[5-(2,6-difluorophenyl)-11,11-dimethyl-3,4-diazatricyclo[6.2.1.02,7]undeca-2,4,6-trien-1-yl]-1-piperidyl]-(1H-pyrazol-4-yl)methanone] | 8.08 |
| CN1CCN(C(N)=O)C[C@H]1[C@@]12CC[C@@H](c3cc(-c4c(F)cccc4F)nnc31)C2(C)C [Compound 179, 3-[5-(2,6-difluorophenyl)-11,11-dimethyl-3,4-diazatricyclo[6.2.1.02,7]undeca-2,4,6-trien-1-yl]-4-methyl-piperazine-1-carboxamide] | 8.54 |
| CC(C)NC(=O)N1CCC[C@H]([C@@]23CC[C@@H](c4cc(-c5c(F)cccc5F)nnc42)C3(C)C)C1 [Compound 137, 3-[5-(2,6-difluorophenyl)-11,11-dimethyl-3,4-diazatricyclo[6.2.1.02,7]undeca-2,4,6-trien-1-yl]-N-isopropyl-piperidine-1-carboxamide] | 7.38 |
| CC1(C)[C@H]2CC[C@]1(OCC(N)=O)c1nnc(-c3c(F)cccc3F)cc12 [Compound 47, 2-(((5S,8R)-3-(2,6-difluorophenyl)-9,9-dimethyl-5,6,7,8-tetrahydro-5,8-methanocinnolin-8-yl)oxy)acetamide] | 6.93 |
| CC[C@@H](O[C@@]12CC[C@@H](c3cc(-c4c(F)cccc4F)nnc31)C2(C)C)c1nc(COC)no1 [Compound 41, 5-((R)-1-(((5S,8R)-3-(2,6-difluorophenyl)-9,9-dimethyl-5,6,7,8-tetrahydro-5,8-methanocinnolin-8-yl)oxy)propyl)-3-(methoxymethyl)-1,2,4-oxadiazole] | 8.40 |
| CC[C@@H](O[C@@]12CC[C@@H](c3cc(-c4c(F)cccc4F)nnc31)C2(C)C)C(=O)NCCS(C)(=O)=O [Compound 102, (R)-2-(((5S,8R)-3-(2,6-difluorophenyl)-9,9-dimethyl-5,6,7,8-tetrahydro-5,8-methanocinnolin-8-yl)oxy)-N-(2-(methylsulfonyl)ethyl)butanamide] | 7.21 |
| CC1(C)[C@H]2CC[C@]1([C@@H]1CN(C(=O)CO)CCO1)c1nnc(-c3c(F)cccc3F)cc12 [Compound 75, 1-((R)-2-((5R,8R)-3-(2,6-difluorophenyl)-9,9-dimethyl-5,6,7,8-tetrahydro-5,8-methanocinnolin-8-yl)morpholino)-2-hydroxyethanone] | 6.63 |
| CC1(C)[C@H]2CC[C@]1(c1nnc(C(N)=O)o1)c1nnc(-c3c(F)cccc3F)cc12 [Compound 2, 5-((5R,8R)-3-(2,6-difluorophenyl)-9,9-dimethyl-5,6,7,8-tetrahydro-5,8-methanocinnolin-8-yl)-1,3,4-oxadiazole-2-carboxamide] | 6.28 |
| CC(CO)NC(=O)N1CCO[C@H]([C@@]23CC[C@@H](c4cc(-c5c(F)cccc5F)nnc42)C3(C)C)C1 (stereo in doubt) [Compound 141, 2-[5-(2,6-difluorophenyl)-11,11-dimethyl-3,4-diazatricyclo[6.2.1.02,7]undeca-2,4,6-trien-1-yl]-N-(2-hydroxy-1-methyl-ethyl)morpholine-4-carboxamide] | 8.02 |
| CC1(C)[C@H]2CC[C@]1([C@@H]1CN(C(N)=O)CCO1)c1nnc(-c3c(F)cccc3F)cc12 [Compound 68, (R)-2-((5R,8R)-3-(2,6-difluorophenyl)-9,9-dimethyl-5,6,7,8-tetrahydro-5,8-methanocinnolin-8-yl)morpholine-4-carboxamide] | 7.25 |
| CC1(C)[C@H]2CC[C@]1([C@H]1CCCN(c3ccccn3)C1)c1nnc(-c3c(F)cccc3F)cc12 [Compound 163, 5-(2,6-difluorophenyl)-11,11-dimethyl-1-[1-(2-pyridyl)-3-piperidyl]-3,4-diazatricyclo[6.2.1.02,7]undeca-2,4,6-triene] | 7.57 |
| CC1(C)[C@H]2CC[C@]1([C@H]1CCCN(C(=O)c3ccon3)C1)c1nnc(-c3c(F)cccc3F)cc12 [Compound 131, [3-[5-(2,6-difluorophenyl)-11,11-dimethyl-3,4-diazatricyclo[6.2.1.02,7]undeca-2,4,6-trien-1-yl]-1-piperidyl]-isoxazol-3-yl-methanone] | 8.21 |
| CC1(C)[C@H]2CC[C@]1(Oc1cnccn1)c1nnc(-c3c(F)cccc3F)cc12 [Compound 11, (5S,8R)-3-(2,6-difluorophenyl)-9,9-dimethyl-8-(pyrazin-2-yloxy)-5,6,7,8-tetrahydro-5,8-methanocinnoline] | 7.10 |
| C[C@H](O[C@@]12CC[C@@H](c3cc(-c4c(F)cccc4F)nnc31)C2(C)C)C(N)=O [Compound 43, (S)-2-(((5S,8R)-3-(2,6-difluorophenyl)-9,9-dimethyl-5,6,7,8-tetrahydro-5,8-methanocinnolin-8-yl)oxy)propanamide] | 6.52 |
| CC1(C)[C@H]2CC[C@]1([C@H]1CCCN(c3ccc(Cl)nn3)C1)c1nnc(-c3c(F)cccc3F)cc12 [Compound 170, 1-[1-(6-chloropyridazin-3-yl)-3-piperidyl]-5-(2,6-difluorophenyl)-11,11-dimethyl-3,4-diazatricyclo[6.2.1.02,7]undeca-2,4,6-triene] | 7.74 |
| CC1(C)[C@H]2CC[C@]1([C@@H]1CN(C(=O)C(O)CO)CCO1)c1nnc(-c3c(F)cccc3F)cc12 (stereo partly drawn) [Compound 78, 1-((R)-2-((5R,8R)-3-(2,6-difluorophenyl)-9,9-dimethyl-5,6,7,8-tetrahydro-5,8-methanocinnolin-8-yl)morpholino)-2,3-dihydroxypropan-1-one] | 6.67 |
| CC1(C)[C@H]2CC[C@]1(O[C@H](C(N)=O)C1CC1)c1nnc(-c3c(F)cccc3F)cc12 [Compound 45] | 6.88 |
| CC1(C)[C@H]2CC[C@]1(Oc1cccnn1)c1nnc(-c3c(F)cccc3F)cc12 [Compound 16, (5S,8R)-3-(2,6-difluorophenyl)-9,9-dimethyl-8-(pyridazin-3-yloxy)-5,6,7,8-tetrahydro-5,8-methanocinnoline] | 6.60 |
| CC[C@@H](O[C@@]12CC[C@@H](c3cc(-c4c(F)cccc4F)nnc31)C2(C)C)C(=O)NCC(C)(C)O [Compound 52, (R)-2-(((5S,8R)-3-(2,6-difluorophenyl)-9,9-dimethyl-5,6,7,8-tetrahydro-5,8-methanocinnolin-8-yl)oxy)-N-(2-hydroxy-2-methylpropyl)butanamide] | 7.31 |
| CC[C@H](C[C@@]12CC[C@@H](c3cc(-c4c(F)cccc4F)nnc31)C2(C)C)C(N)=O [Compound 4, (R)-2-(((5R,8R)-3-(2,6-difluorophenyl)-9,9-dimethyl-5,6,7,8-tetrahydro-5,8-methanocinnolin-8-yl)methyl)butanamide] | 7.08 |
| CC1(C)[C@H]2CC[C@]1([C@H]1CN(Cc3ccccc3)CCO1)c1nnc(-c3c(F)cccc3F)cc12 [Compound 61, (S)-4-benzyl-2-((5R,8R)-3-(2,6-difluorophenyl)-9,9-dimethyl-5,6,7,8-tetrahydro-5,8-methanocinnolin-8-yl)morpholine] | 6.76 |
| CN(C)C(=O)N1CCC[C@H]([C@@]23CC[C@@H](c4cc(-c5c(F)cccc5F)nnc42)C3(C)C)C1 [Compound 97, (R)-3-((5R,8R)-3-(2,6-difluorophenyl)-9,9-dimethyl-5,6,7,8-tetrahydro-5,8-methanocinnolin-8-yl)-N,N-dimethylpiperidine-1-carboxamide] | 7.01 |
| CNC(=O)c1nccnc1O[C@@]12CC[C@@H](c3cc(-c4c(F)cccc4F)nnc31)C2(C)C [Compound 15, 3-(((5S,8R)-3-(2,6-difluorophenyl)-9,9-dimethyl-5,6,7,8-tetrahydro-5,8-methanocinnolin-8-yl)oxy)-N-methylpyrazine-2-carboxamide] | 7.14 |
